Measured values published in ChEMBL document CHEMBL1201862, “PubChem BioAssay data set” (2004).
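Each compound was tested at five concentrations against cells in 96-well plates for 48 hours. GI50 is the concentration that inhibits growth by half.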 Active and inactive are the calls of the source. No stated cut-off is given here; in the data, active = GI50 up to about 1.1 µM and inactive = higher. Where a SMILES comes first, the peptide text is derived from it. The star is where a group is joined. Cbz = O=C(OCc1ccccc1)*

What was measured:
Test in all cases: NCI-60 cell line screen, 48 h
UACC-257 = test system: UACC-257
M14 = test system: M14
K562 = test system: K562
EKVX = test system: EKVX
786-0 = test system: 786-0
Hs-578T = test system: Hs-578T
NCI-H522 = test system: NCI-H522
SF-295 = test system: SF-295
SNB-19 = test system: SNB-19
SF-539 = test system: SF-539
PC-3 = test system: PC-3
MOLT-4 = test system: MOLT-4
RPMI-8226 = test system: RPMI-8226
A549 = test system: A549
UACC-62 = test system: UACC-62
MDA-MB-231 = test system: MDA-MB-231
HOP-62 = test system: HOP-62
DU-145 = test system: DU-145
KM12 = test system: KM12
MDA-N = test system: MDA-N

Measured: GI50

COc1cc2c(cc1Cc1c(F)cccc1Cl)nc(-c1c(F)cccc1Cl)n2Cc1c(F)cccc1Cl
inactive: UACC-257 22.5 µM | M14 > 100 µM | K562 45.3 µM | EKVX 12.6 µM | 786-0 24.4 µM | Hs-578T 21.3 µM | NCI-H522 16.1 µM | SF-295 14 µM | SNB-19 33.2 µM | SF-539 21 µM | PC-3 10.7 µM | MOLT-4 36 µM | RPMI-8226 13.7 µM | A549 20.7 µM | UACC-62 56.4 µM | MDA-MB-231 31.8 µM | HOP-62 36.1 µM | DU-145 28.1 µM | KM12 28.4 µM | MDA-N 20.6 µM

CCOC(=O)CCC(NC(=O)C(Cc1ccccc1)NC(=O)OCc1ccccc1)C(=O)OCC (stereo not drawn) (Cbz-Phe-Glu(OEt)-OEt; configuration not given here)
inactive: UACC-257 16.9 µM | M14 15.9 µM | K562 37.4 µM | EKVX 20.4 µM | 786-0 18.1 µM | Hs-578T 14.8 µM | NCI-H522 15.7 µM | SF-295 19.8 µM | SNB-19 19.7 µM | SF-539 20.3 µM | PC-3 18.2 µM | MOLT-4 30.2 µM | RPMI-8226 35 µM | A549 18.8 µM | UACC-62 17.9 µM | MDA-MB-231 14.9 µM | HOP-62 18.5 µM | DU-145 6.58 µM | KM12 17 µM | MDA-N 17.2 µM
